# pKi: −log10 of the molar value. Read-outs that look alike come from different tables or passages of the source.
# Legend:
# human 5-HT2CR [1] = molecular target: T1, human 5-HT2CR (Homo sapiens, UniProt P28335); conditions: read-out: 5-HT2CR (nM), Table S3; commercially available compounds known to bind 5-HT2BR; ref Roth et al., 2000; cited from earlier work
# T1 sequence (P28335 33-458): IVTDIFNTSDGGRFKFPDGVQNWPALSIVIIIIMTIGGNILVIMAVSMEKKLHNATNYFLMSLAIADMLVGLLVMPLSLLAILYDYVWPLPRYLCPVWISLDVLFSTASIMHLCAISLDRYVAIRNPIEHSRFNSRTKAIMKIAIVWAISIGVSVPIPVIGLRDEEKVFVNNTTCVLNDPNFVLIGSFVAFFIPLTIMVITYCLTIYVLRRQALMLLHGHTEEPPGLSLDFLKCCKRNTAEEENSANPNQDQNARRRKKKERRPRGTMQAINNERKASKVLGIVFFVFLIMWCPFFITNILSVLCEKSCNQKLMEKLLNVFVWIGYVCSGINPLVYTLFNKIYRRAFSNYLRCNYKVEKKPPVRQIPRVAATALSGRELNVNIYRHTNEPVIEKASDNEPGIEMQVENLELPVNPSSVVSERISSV
# human 5-HT2AR [2] = molecular target: T2, human 5-HT2AR (Homo sapiens, UniProt P28223); conditions: commercially available compounds known to bind 5-HT2BR; ref Roth et al., 2000; read-out: 5-HT2AR (nM), Table S3; cited from earlier work
# [3] = tested on: scn1lab mutant zebrafish larvae; assay: toxicity check of larvae after 90 min drug exposure (heartbeat, escape response); type: in vivo, Danio rerio; conditions: 90 min exposure; for toxicity in initial analogue screening: 100 µM or 250 µM
# Protocol: For locomotion studies, zebrafish larvae (5 days post-fertilization) were placed into a single well of a clear flat-bottomed 96-well microplate containing embryo media. Sex determination is not possible at this stage of development. All drug screening experiments were conducted in an unbiased manner by investigators blinded to the test compounds and all files coded for post hoc analysis. The 96-well plate containing larvae was then placed inside a DanioVision box where they were allowed to acclimate (20 min; room temperature). EthoVision XT software (DanioVision, Noldus Information Technology) was used to obtain locomotion plots (10 min in duration). […] All locomotion plots were analysed for distance travelled (in millimetres) and mean velocity (in millimetres per second). After 90 min of drug exposure larvae were examined for toxic side-effects. Compounds that decreased or stopped the larva heartbeat, or reduced or eliminated the escape response when touched, were considered toxic.
# scn1lab mutant zebrafish = assay: locomotion (mean swim velocity) seizure-like behaviour assay in scn1lab mutant zebrafish larvae; type: in vivo, Danio rerio; conditions: for change in vivo at 100 µM / change in vivo at 250 µM: Danio rerio
# Protocol: For locomotion studies, zebrafish larvae (5 days post-fertilization) were placed into a single well of a clear flat-bottomed 96-well microplate containing embryo media. Sex determination is not possible at this stage of development. All drug screening experiments were conducted in an unbiased manner by investigators blinded to the test compounds and all files coded for post hoc analysis. The 96-well plate containing larvae was then placed inside a DanioVision box where they were allowed to acclimate (20 min; room temperature). EthoVision XT software (DanioVision, Noldus Information Technology) was used to obtain locomotion plots (10 min in duration). Seizure scoring was performed, as described ([Baraban et al., 2005]). All locomotion plots were analysed for distance travelled (in millimetres) and mean velocity (in millimetres per second). After 90 min of drug exposure larvae were examined for toxic side-effects. Compounds that decreased or stopped the larva heartbeat, or reduced or eliminated the escape response when touched, were considered toxic.
# For behaviour analysis, the threshold for a change in mean swim velocity ≥40% is considered significant (>1.5× SD of 250 control treated scn1lab). Unless otherwise indicated, all data in this manuscript are presented as the mean ± standard error of the mean. […] Statistically significant differences are indicated with asterisks (*P < 0.05; **P < 0.01; ***P < 0.001). […]
# human 5-HT2AR [4] = molecular target: T2, human 5-HT2AR; assay: radioligand binding (NIMH PDSP)
# Protocol: (§1) All in vitro binding assay and Ki data studies were performed by the US National Institute of Mental Health Psychoactive Drug Screening Program (NIMH PDSP). For these studies, drugs were screened against recombinant, stably expressed human 5-HT2AR, 5-HT2BR, 5-HT2CR and H1, as described at https://pdspdb.unc.edu/pdspWeb/ ([Besnard et al., 2012]).
# human H1 = human H1 (Homo sapiens, UniProt P35367); assay: radioligand binding (NIMH PDSP); conditions: read-out: Ki H1
# Protocol: as §1
# human 5-HT2BR = human 5-HT2BR (Homo sapiens, UniProt P41595); assay: radioligand binding (NIMH PDSP); conditions: read-out: Ki 5-HT2BR
# Protocol: as §1
# human 5-HT2CR [5] = molecular target: T1, human 5-HT2CR; assay: radioligand binding (NIMH PDSP)
# Protocol: as §1
# [6] = read-out: % change in velocity, individual larva 1 (heat map)
# [7] = read-out: % change in velocity, individual larva 2 (heat map)
# [8] = read-out: % change in velocity, individual larva 3 (heat map)
# [9] = read-out: % change in velocity, individual larva 4 (heat map)
# [10] = read-out: % change in velocity, individual larva 5 (heat map)
# [11] = read-out: % change in velocity, individual larva 6 (heat map)
# [12] = read-out: mean velocity change from six fish, Trial 1
# [13] = read-out: mean velocity change from six fish, Trial 2
# [14] = recombinant, stably expressed human receptor, clemizole analogues
# Chain of human H1 (P35367 whole entry): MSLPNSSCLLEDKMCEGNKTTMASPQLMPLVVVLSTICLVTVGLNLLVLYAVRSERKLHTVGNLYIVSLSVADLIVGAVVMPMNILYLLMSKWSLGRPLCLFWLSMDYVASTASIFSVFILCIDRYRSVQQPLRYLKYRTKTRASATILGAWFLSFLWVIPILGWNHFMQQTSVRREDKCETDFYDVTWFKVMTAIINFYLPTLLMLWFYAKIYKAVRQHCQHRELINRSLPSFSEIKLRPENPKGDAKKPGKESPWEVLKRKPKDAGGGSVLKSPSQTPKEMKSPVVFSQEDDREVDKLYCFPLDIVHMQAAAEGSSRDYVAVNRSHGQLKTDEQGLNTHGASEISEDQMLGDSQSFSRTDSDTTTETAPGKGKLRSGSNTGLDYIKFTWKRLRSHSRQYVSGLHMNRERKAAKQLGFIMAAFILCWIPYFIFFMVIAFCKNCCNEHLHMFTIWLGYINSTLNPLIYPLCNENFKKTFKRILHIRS
# Chain of human 5-HT2BR (P41595 whole entry): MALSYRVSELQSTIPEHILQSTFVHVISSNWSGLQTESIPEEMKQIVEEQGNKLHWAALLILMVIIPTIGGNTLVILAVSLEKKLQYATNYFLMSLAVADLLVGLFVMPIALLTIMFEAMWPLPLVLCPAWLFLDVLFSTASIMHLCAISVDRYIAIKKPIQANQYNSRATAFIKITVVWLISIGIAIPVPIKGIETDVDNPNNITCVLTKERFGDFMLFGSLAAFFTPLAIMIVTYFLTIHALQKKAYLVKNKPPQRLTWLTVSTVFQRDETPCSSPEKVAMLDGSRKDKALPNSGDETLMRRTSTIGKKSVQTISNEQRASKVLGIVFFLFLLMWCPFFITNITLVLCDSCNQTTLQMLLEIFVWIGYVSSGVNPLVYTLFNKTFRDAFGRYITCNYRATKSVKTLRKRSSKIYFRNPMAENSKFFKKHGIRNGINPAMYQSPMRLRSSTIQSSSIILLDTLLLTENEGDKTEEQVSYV
# T2 sequence (P28223 whole entry): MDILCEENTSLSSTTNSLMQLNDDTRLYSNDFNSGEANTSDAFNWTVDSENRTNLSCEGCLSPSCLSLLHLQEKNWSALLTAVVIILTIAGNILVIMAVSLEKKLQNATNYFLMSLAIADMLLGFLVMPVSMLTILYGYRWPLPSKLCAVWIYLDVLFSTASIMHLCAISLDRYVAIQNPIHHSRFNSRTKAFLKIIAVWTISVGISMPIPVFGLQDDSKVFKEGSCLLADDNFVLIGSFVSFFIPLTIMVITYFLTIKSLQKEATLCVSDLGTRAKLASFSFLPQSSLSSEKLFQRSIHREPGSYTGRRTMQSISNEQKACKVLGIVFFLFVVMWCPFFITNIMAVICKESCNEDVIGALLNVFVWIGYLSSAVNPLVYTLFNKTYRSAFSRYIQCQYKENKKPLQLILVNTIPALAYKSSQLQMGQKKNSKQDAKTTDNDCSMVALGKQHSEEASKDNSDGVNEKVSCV
Compound,change in vivo at 100 µM (scn1lab mutant zebrafish; [6]),change in vivo at 250 µM (scn1lab mutant zebrafish; [6]),change in vivo at 100 µM (scn1lab mutant zebrafish; [7]),change in vivo at 250 µM (scn1lab mutant zebrafish; [7]),change in vivo at 100 µM (scn1lab mutant zebrafish; [8]),change in vivo at 250 µM (scn1lab mutant zebrafish; [8]),change in vivo at 100 µM (scn1lab mutant zebrafish; [9]),change in vivo at 250 µM (scn1lab mutant zebrafish; [9]),change in vivo at 100 µM (scn1lab mutant zebrafish; [10]),change in vivo at 250 µM (scn1lab mutant zebrafish; [10]),change in vivo at 100 µM (scn1lab mutant zebrafish; [11]),change in vivo at 250 µM (scn1lab mutant zebrafish; [11]),change in vivo at 100 µM (scn1lab mutant zebrafish; [12]),change in vivo at 250 µM (scn1lab mutant zebrafish; [12]),change in vivo at 100 µM (scn1lab mutant zebrafish; [13]),pKi (human 5-HT2BR),pKi (human 5-HT2CR [5]),toxicity in initial analogue screening [3],pKi (human 5-HT2AR [4]; [14]),pKi (human H1; [14]),other results
"c1cnc(N2CCN(Cc3ccc4c(c3)OCO4)CC2)nc1 [piribedil, Piribedil, reference compound]",–,–,–,–,–,–,–,–,–,–,–,–,–,–,–,–,–,–,–,–,Ki (human 5-HT2CR [1]): > 10000 nM; Ki (human 5-HT2AR [2]): > 10000 nM; toxicity at 100 µM ([3]; 100 µM): toxicity; toxicity at 250 µM [3]: toxicity
"C=CCN1C[C@H](C(=O)N(CCCN(C)C)C(=O)NCC)C[C@@H]2c3cccc4[nH]cc(c34)C[C@H]21 [cabergoline, Cabergoline]",–,–,–,–,–,–,–,–,–,–,–,–,–,–,–,–,–,–,–,–,effect on convulsive swim behaviour at 250 µM (scn1lab mutant zebrafish; 250 µM): significantly reduced convulsive swim behaviour; Ki (human 5-HT2CR [1]): 692 nM; Ki (human 5-HT2AR [2]): 6.17 nM
Clc1ccc(Cn2ccnc2CN2CCCC2)cc1 [Compound 9],-13.5%,-94%,-0.7%,-100%,-34.9%,-22.5%,-57.3%,-100%,34.4%,-38.8%,-33.2%,-100%,-28.1%,-73.2%,-28.1%,< 5.00,6.35,–,–,–,"effect on seizure-like swim behaviour, initial library screen (scn1lab mutant zebrafish; 100 µM or 250 µM, UCSF-synthesized compound): effective in suppressing; change in vivo at 250 µM (scn1lab mutant zebrafish; [13]): -100%; toxicity at 250 µM [3]: toxic; pKi (human 5-HT2AR [4]): < 5.00; pKi (human H1): 7.54"
FC1(F)CCN(Cc2nc3ccccc3n2Cc2ccc(Cl)cc2)CC1 [Compound 27],–,–,–,–,–,–,–,–,–,–,–,–,–,–,–,–,–,toxic,< 5.00,6.35,pKi (human 5-HT2BR; [14]): < 5.00; pKi (human 5-HT2CR [5]; [14]): 5.15
Clc1ccc(Cn2c(CC3CCCC3)nc3ccccc32)cc1 [Compound 1],-100%,-100%,-100%,-60%,-100%,-100%,-100%,-100%,-100%,-100%,-100%,-100%,-100%,-96.2%,-100%,6.30,5.56,toxic,–,–,–
Clc1ccc(Cn2c(CN3CCCCC3)nc3ccccc32)cc1 [Compound 22],–,–,–,–,–,–,–,–,–,–,–,–,–,–,–,–,–,toxic,6.21,8.07,pKi (human 5-HT2BR; [14]): 6.51; pKi (human 5-HT2CR [5]; [14]): 5.34
CCN(CC)Cc1nc2ccccc2n1Cc1ccc(Cl)cc1 [Compound 24],67.6%,-100%,330%,-100%,-70.1%,-90%,-28%,-100%,-30.1%,-100%,-3.9%,-100%,3.5%,-98.7%,3.5%,6.94,5.85,toxic,–,–,pKi (human 5-HT2AR [4]): 5.90; pKi (human H1): 8.43
O=C(c1nc2ccccc2n1Cc1ccc(Cl)cc1)N1CCCC1 [Compound 2],-68.2%,-100%,-100%,-100%,-100%,-100%,-100%,-100%,-100%,-100%,-100%,-100%,-97.2%,-100%,-97.2%,–,–,toxic,–,–,–
Clc1ccc(Cn2c(CN3CCOCC3)nc3ccccc32)cc1 [Compound 23],–,–,–,–,–,–,–,–,–,–,–,–,–,–,–,–,–,toxic,< 5.00,7.47,pKi (human 5-HT2BR; [14]): 6.29; pKi (human 5-HT2CR [5]; [14]): < 5.00

# Source: PMC6798786 (Brain Communications, 2019)
